Measured values from patent US7117100B2, “Method for the compositional analysis of polymers” (Massachusetts Institute of Technology, priority 1999, dated 2006).

Columns and labels:
heparinase III = biological target: T1, heparinase III (Pedobacter heparinus, UniProt Q59289); assay: Cleavage of defined oligosaccharide substrates by heparinase III; type: biochemical, Flavobacterium heparinum
T1 construct: made in house
Source text: Secondary specificities of the heparinases have been observed, especially under exhaustive degradation conditions. As a part of ongoing investigations into the enzymology of heparinases, the relative rates of cleavage of I and G containing sites by heparinase I and III with defined substrates under different conditions have been measured. For instance heparinase III cleaves both at I and G containing linkages and not I2S [H. E. Conrad, Heparin Binding Proteins (Academic Press, San Diego, 1998).]. However, under the reaction conditions used in this study, there is a dramatic (8-10 fold) difference in the rates of cleavage, with I-containing linkages being clipped more slowly than G-containing linkages (FIG. 7A). […] Each reaction was followed by capillary electrophoresis. […] Under the “short” conditions of digest it is expected that only G-containing saccharides are cleaved to an appreciable extent. [Conditions for enzymatic digest of HLGAG oligosaccharides were set forth above, briefly, Digests were either designated as “short” or “exhaustive”. Short digests were completed with 50 nM enzyme for 10 minutes. Exhaustive digests were completed using 200 nM enzyme for either four hours or overnight. Partial nitrous acid cleavage was completed using a modification of published procedures. Briefly, to an aqueous solution of saccharide was added a 2× solution of sodium nitrite in HCl such that the concentration of nitrous acid was 2 mM and HCl was 20 mM. The reaction was allowed to proceed at room temperature with quenching of aliquots at various time points via the addition of 1 μL of 200 mM sodium acetate 1 mg/mL BSA pH 6.0. Exhaustive nitrous acid was completed by reacting saccharide with 4 mM nitrous acid in HCl overnight at room temperature.
Quite a few factors have severely limited and complicated prior art studies and interpretation of heparinase substrate specificity experiments. First, not only is a homogenous substrate preparation difficult, but also analyzing the substrates and products have been very challenging. […]

FGF-2 = FGF-2 (Homo sapiens, UniProt P09038); assay: Saccharide binding to FGF-2 immobilized on the MALDI surface, salt wash, MALDI-MS detection
Chain of FGF-2 (P09038 134-288 limits assumed, species assumed): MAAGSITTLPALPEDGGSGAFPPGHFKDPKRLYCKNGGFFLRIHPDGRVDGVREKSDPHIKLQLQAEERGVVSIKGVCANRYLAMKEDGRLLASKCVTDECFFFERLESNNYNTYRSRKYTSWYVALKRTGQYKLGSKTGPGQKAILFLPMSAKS
Procedure: Protein preparation and immobilization. ATIII was incubated overnight with excess porcine mucosal heparin, then biotinylated with EZ-link sulfo-NHS biotin (Pierce). Canon NP Type E transparency film was taped to the MALDI sample plate and used as a protein immobilization surface. FGF-1 and FGF-2 were immobilized by spotting 1 μl of aqueous solution on the film and air-drying. ATIII was immobilized by first drying 4 μg neutravidin on the film surface, then adding biotinylated ATIII to the neutravidin spot. Heparin was removed by washing ten times with 1M NaCl and ten times with water.
Saccharide binding, selection and analysis. Saccharides were derived from a partial digest of porcine mucosal heparin by heparinase I. The hexasaccharide fraction was obtained by size exclusion chromatography on Biogel P-6 and lyophilized to dryness. Saccharides were bound to immobilized proteins by spotting 1 μl of aqueous solution on the protein spot for at least five minutes. Unbound saccharides were removed by washing with water fifteen times. […] All saccharides were detected as noncovalent complexes with (RG)19R using MALDI parameters described herein.
Isolation, Purification, and Selection of FGF binders from SMC heparan sulfate. […] After drying, the sample was washed, 2 pmol/μl (RG)19R in matrix was added, and the sample was analyzed as outlined above.

Heparinase II = assay: Incubation of hexasaccharide with heparinase II; type: biochemical
[1] = Relative rates of cleavage of tetrasaccharides by recombinant heparinase III, followed by capillary electrophoresis; type: biochemical
Source text: (§1) Secondary specificities of the heparinases have been observed, especially under exhaustive degradation conditions. As a part of ongoing investigations into the enzymology of heparinases, the relative rates of cleavage of I and G containing sites by heparinase I and III with defined substrates under different conditions have been measured. For instance heparinase III cleaves both at I and G containing linkages and not I2S [H. E. Conrad, Heparin Binding Proteins (Academic Press, San Diego, 1998).]. However, under the reaction conditions used in this study, there is a dramatic (8-10 fold) difference in the rates of cleavage, with I-containing linkages being clipped more slowly than G-containing linkages (FIG. 7A). […] Each reaction was followed by capillary electrophoresis. […] Under the “short” conditions of digest it is expected that only G-containing saccharides are cleaved to an appreciable extent. [Conditions for enzymatic digest of HLGAG oligosaccharides were set forth above, briefly, Digests were either designated as “short” or “exhaustive”. Short digests were completed with 50 nM enzyme for 10 minutes. Exhaustive digests were completed using 200 nM enzyme for either four hours or overnight. Partial nitrous acid cleavage was completed using a modification of published procedures. […]

[2] = Cleavage of tetrasaccharides by heparinase I; type: biochemical; conditions: tetrasaccharide substrates, same study as FIG. 7A
Source text: as §1

In the case of ΔU2SHNS,6SI2SHNS,6S, the “Degradation by a commercial source of heparinase III” value (heparinase III; commercial enzyme, sulfatase contamination suggested) is reported as “able to degrade” and the “Cleavage by recombinant heparinase III” value (heparinase III; recombinant enzyme without contamination by other heparin degrading enzymes) is reported as “does not cleave”.

In the case of “ΔU2SHNS,6SI2SHNS,6SI2SHNS,6S [nonasulfated hexasaccharide]”, the “FGF-2 binder selected from SMC heparan sulfate” value (FGF-2; bovine aortic SMC HLGAG fragments digested with heparinase II, spotted on FGF-2) is reported as “high affinity binder” and the “Structures remaining on immobilized FGF upon a salt wash” value (FGF-2; hexasaccharide fraction from incomplete heparinase I digestion of porcine intestinal mucosa heparin) is reported as “remained”.

For ΔUHNH,6SGHNSIHNAc, the “Cleavage by heparinase III” value (heparinase III; "short" digest conditions) was “cleavage occurs only at the G” and the “Cleavage by heparinase II” value (Heparinase II) was “only cleavage at the G and not the I was observed”.

B1: heparinase III: HLGAG degrading enzyme; cleaves at a glycosidic linkage before an unsulfated glucuronic acid (protein, UniProt Q59289 25-659, looked up)
Heparin-sulfate lyase: QSSSITRKDFDHINLEYSGLEKVNKAVAAGNYDDAAKALLAYYREKSKAREPDFSNAEKPADIRQPIDKVTREMADKALVHQFQPHKGYGYFDYGKDINWQMWPVKDNEVRWQLHRVKWWQAMALVYHATGDEKYAREWVYQYSDWARKNPLGLSQDNDKFVWRPLEVSDRVQSLPPTFSLFVNSPAFTPAFLMEFLNSYHQQADYLSTHYAEQGNHRLFEAQRNLFAGVSFPEFKDSPRWRQTGISVLNTEIKKQVYADGMQFELSPIYHVAAIDIFLKAYGSAKRVNLEKEFPQSYVQTVENMIMALISISLPDYNTPMFGDSWITDKNFRMAQFASWARVFPANQAIKYFATDGKQGKAPNFLSKALSNAGFYTFRSGWDKNATVMVLKASPPGEFHAQPDNGTFELFIKGRNFTPDAGVFVYSGDEAIMKLRNWYRQTRIHSTLTLDNQNMVITKARQNKWETGNNLDVLTYTNPSYPNLDHQRSVLFINKKYFLVIDRAIGEATGNLGVHWQLKEDSNPVFDKTKNRVYTTYRDGNNLMIQSLNADRTSLNEEEGKVSYVYNKELKRPAFVFEKPKKNAGTQNFVSIVYPYDGQKAPEISIRENKGNDFEKGKLNLTLTINGKQQLVLVP
For B1, the “Difference in the rates of cleavage, I-containing linkages clipped more slowly than G-containing linkages” value ([1]; reaction conditions of this study) was 8-10 fold and the “Cleavage of G-containing linkages relative to I-containing linkages” value ([1]; recombinant heparinase III, tetrasaccharide substrates) was “roughly 10 times”.

B2: heparinase I: HLGAG degrading enzyme; clips at a glycosidic linkage before a 2-O sulfated iduronic acid (protein, UniProt Q05819 22-384, looked up)
Heparin lyase I: QQKKSGNIPYRVNVQADSAKQKAIIDNKWVAVGINKPYALQYDDKLRFNGKPSYRFELKAEDNSLEGYAAGETKGRTELSYSYATTNDFKKFPPSVYQNAQKLKTVYHYGKGICEQGSSRSYTFSVYIPSSFPDNATTIFAQWHGAPSRTLVATPEGEIKTLSIEEFLALYDRMIFKKNIAHDKVEKKDKDGKITYVAGKPNGWKVEQGGYPTLAFGFSKGYFYIKANSDRQWLTDKADRNNANPENSEVMKPYSSEYKTSTIAYKMPFAQFPKDCWITFDVAIDWTKYGKEANTILKPGKLDVMMTYTKNKKPQKAHIVNQQEILIGRNDDDGYYFKFGIYRVGNSTVPVTYNLSGYSETAR
For B2, the “Linkage specificity of cleavage by heparinase I” value [2] was “cleavage only occurs at I2S-containing linkages”.
